One block for each compound: values may come before it.
Legend:
[1] = target: T1, Protein cereblon/Bcl-2-like protein 1 (Homo sapiens, UniProt Q07817+Q96SW2); assay: Protac activity at CRBN/BCL-XL in human WI-38 cells relative to control; type: cell-based
[2] = target: T1, Protein cereblon/Bcl-2-like protein 1; assay: Protac activity at CRBN/BCL-XL in human WI-38 cells; type: cell-based
Protein cereblon/Basigin = Protein cereblon/Basigin (Homo sapiens, UniProt P35613+Q96SW2); assay: Protac activity at CRBN/CD147 in human SK-MEL-28 cells by Western blotting analysis; type: cell-based
[3] = target: Protein cereblon/Protein deacetylase HDAC6 (Homo sapiens, UniProt Q96SW2+Q9UBN7); assay: Protac activity at CRBN/HDAC6 in human MM1.S cells incubated for 24 hrs by Immunoblotting analysis; type: cell-based
BXPC-3 = assay: Antiproliferative activity against human BXPC-3 cells assessed as cell growth inhibition; type: functional, cell-based
[4] = target: Protein cereblon/Protein deacetylase HDAC6 (Homo sapiens, UniProt Q9UBN7+Q96SW2); assay: Protac activity at CRBN/HDAC6 in human MM1.S cells incubated for 5 hrs by ELISA analysis; type: cell-based
PC-3 = assay: Antiproliferative activity against human PC-3 cells assessed as inhibition of cell growth; type: functional, cell-based
[5] = target: T2, Protein cereblon/Tyrosine-protein kinase BTK (Homo sapiens, UniProt Q06187+Q96SW2); assay: Protac activity at CRBN/BTK in human Ramos cells incubated for 24 hrs by immunoblotting method; type: cell-based
[6] = target: T3, Protein cereblon/Signal transducer and activator of transcription 3 (Homo sapiens) (UniProt P40763+Q96SW2); assay: Protac activity at CRBN/STAT3 in human SU-DHL-1 cells at 250 nM measured after 7 hrs by immunoblotting analysis relative to control; type: cell-based
[7] = target: T3, Protein cereblon/Signal transducer and activator of transcription 3 (Homo sapiens); assay: Protac activity at CRBN/STAT3 in human Ki-JK cells at 250 nM measured after 7 hrs by immunoblotting analysis relative to control; type: cell-based
[8] = target: T3, Protein cereblon/Signal transducer and activator of transcription 3 (Homo sapiens); assay: Protac activity at CRBN/STAT3 in human MOLM16 cells at 250 nM measured after 4 hrs by immunoblotting analysis relative to control; type: cell-based
[9] = target: T3, Protein cereblon/Signal transducer and activator of transcription 3 (Homo sapiens); assay: Protac activity at CRBN/STAT3 in human DEL cells at 250 nM measured after 7 hrs by immunoblotting analysis relative to control; type: cell-based
[10] = target: Protein cereblon/Proteasomal ubiquitin receptor ADRM1 (Homo sapiens) (UniProt Q16186+Q96SW2); assay: Protac activity at CRBN/Rpn13 in human MM1.S cells measured after 16 hrs by immunoblotting analysis relative to control; type: cell-based
Protein cereblon-NS3 = Protein cereblon-NS3 (Hepacivirus hominis, UniProt A3EZJ3+Q96SW2); assay: Protac activity at CRBN/NS3 in human Huh7.5 cells; type: cell-based
[11] = target: T2, Protein cereblon/Tyrosine-protein kinase BTK; assay: Protac activity at CRBN/BTK in human MOLM-14 cells at 0.2 uM relative to control; type: cell-based
[12] = target: Protein cereblon/Indoleamine 2,3-dioxygenase 1 (Homo sapiens) (UniProt P14902+Q96SW2); assay: Protac activity at CRBN/IDO1 in human HeLa cells incubated for 24 hrs by Western blotting analysis relative to control; type: cell-based
[13] = target: RAC-alpha serine/threonine-protein kinase (Homo sapiens, UniProt P31749); assay: Inhibition of Akt1 (unknown origin)
[14] = target: RAC-gamma serine/threonine-protein kinase (Homo sapiens, UniProt Q9Y243); assay: Inhibition of Akt3 (unknown origin)
[15] = target: von Hippel-Lindau disease tumor suppressor/Tyrosine-protein kinase BTK (Homo sapiens, UniProt Q06187+P40337); assay: Protac activity at VHL/BTK in human NAMALVA cells incubated for 24 hrs by immunoblotting method; type: cell-based
[16] = target: von Hippel-Lindau disease tumor suppressor/Tyrosine-protein kinase BTK (Homo sapiens, UniProt Q06187+P40337, C481S); assay: Protac activity at VHL/BTK C481S mutant in human NAMALVA cells incubated for 24 hrs by immunoblotting method; type: cell-based

Emax [1]: 96.2%
DC50 [2]: 0.046 µM
SMILES: CC1(C)CCC(c2ccc(Cl)cc2)=C(CN2CCN(c3ccc(C(=O)NS(=O)(=O)c4ccc(N[C@H](CCN5CCN(C(=O)CCCn6cc(COCCCNc7cccc8c7C(=O)N(C7CCC(=O)NC7=O)C8=O)nn6)CC5)CSc5ccccc5)c(S(=O)(=O)C(F)(F)F)c4)cc3)CC2)C1 (stereo not given in full)

IC50 [3]: 0.0032 µM
SMILES: CCCCN(Cc1ccc(C(=O)NO)cc1)C(=O)Nc1ccc(NC(=O)CCCc2cn(CCOCCNc3cccc4c3C(=O)N(C3CCC(=O)NC3=O)C4=O)nn2)cc1 (stereo not given)

IC50 (BXPC-3): 0.165 µM
SMILES: CCS(=O)(=O)Nc1ccc(Oc2ccc(F)cc2F)c(-c2cn(C)c(=O)c3[nH]c(C(=O)NCc4cn(CCOCC(=O)Nc5cccc6c5CN(C5CCC(=O)NC5=O)C6=O)nn4)cc23)c1 (stereo not given)

DC50 [4]: 0.0015 µM
SMILES: CCCCN(Cc1ccc(C(=O)NO)cc1)C(=O)Nc1ccc(OCn2cc(CCCCCCCNCc3ccc(-c4cccc5c4CN(C4CCC(=O)NC4=O)C5=O)cc3)nn2)cc1 (stereo not given)

IC50 (PC-3): 6.12 µM
SMILES: COc1cc2nc(N3CCN(C(=O)c4cn(CCCCOCC(=O)Nc5cccc6c5C(=O)N(C5CCC(=O)NC5=O)C6=O)nn4)CC3)nc(N)c2cc1OC (stereo not given)

DC50 [5]: 0.0059 µM
SMILES: NC(=O)c1c(-c2ccc(Oc3ccc(F)cc3F)cc2)nn([C@@H]2CCCN(C(=O)COCCCCCCNc3cccc4c3C(=O)N(C3CCC(=O)NC3=O)C4=O)C2)c1N (stereo not given in full)

Activity [10]: 95%
SMILES: O=C1CCC(N2C(=O)c3cccc(NCCOCCOCCOCCC(=O)N[C@@H](Cc4ccccc4)C(=O)C4C/C(=C\c5ccc(Cl)c(Cl)c5)C(=O)/C(=C/c5ccc(Cl)c(Cl)c5)C4)c3C2=O)C(=O)N1 (stereo not given in full)

Continued, compound first:

SMILES: COC(=O)C1=CC[C@@]23CC[C@@H]([C@@](C)(/C=C/C=C(\C)C(=O)NCCNc4cccc5c4C(=O)N(C4CCC(=O)NC4=O)C5=O)OC2=O)[C@@]3(OC(C)=O)CC1 (stereo not given in full)
DC50 (Protein cereblon/Basigin): 6.72 µM

SMILES: NC(=O)CC[C@H](NC(=O)[C@@H]1CC[C@@H]2CCN(C(=O)CCCCCC#Cc3cccc4c3CN(C3CCC(=O)NC3=O)C4=O)C[C@H](NC(=O)c3cc4cc(C(F)(F)P(=O)(O)O)ccc4[nH]3)C(=O)N21)C(=O)NC(c1ccccc1)c1ccccc1 (stereo not given in full)
Activity [6]: > 50%
Activity [7]: > 50%
Activity [8]: > 90%
Activity [9]: > 50%

SMILES: CCC[C@H](NC(=O)[C@@H]1[C@H]2CCC[C@H]2CN1C(=O)[C@@H](NC(=O)C(NC(=O)c1cnc(C(=O)NCCOCCOCCOc2cc3c4c(cccc4c2)C(=O)N(C2CCC(=O)NC2=O)C3=O)cn1)C1CCCCC1)C(C)(C)C)C(=O)C(=O)NC1CC1 (stereo not given in full)
IC50 (Protein cereblon-NS3): 0.748 µM

SMILES: CN(CCCNC(=O)CNc1cccc2c1C(=O)N(C1CCC(=O)NC1=O)C2=O)C(C)(C)/C=C(\C#N)C(=O)N1CCC[C@@H](n2nc(-c3ccc(Oc4ccccc4)cc3)c3c(N)ncnc32)C1 (stereo not given in full)
Activity [11]: 81%

SMILES: O=C1CCC(N2C(=O)c3cccc(NCCOCCCCCCCCNCCNc4nonc4/C(=N/O)Nc4ccc(F)c(Br)c4)c3C2=O)C(=O)N1 (stereo not given)
Emax [12]: 93%

SMILES: C[C@@H]1C[C@@H](O)c2ncnc(N3CCN(C(=O)[C@H](CNCCCCCCCCCCCc4cccc5c4CN(C4CCC(=O)NC4=O)C5=O)c4ccc(Cl)cc4)CC3)c21 (stereo not given in full)
IC50 [13]: 0.002 µM
IC50 [14]: 0.0035 µM

SMILES: Nc1ncnc2c1c(-c1ccc(Oc3ccccc3)cc1)nn2[C@@H]1CCCN(CCOCCOCC(=O)Nc2ccc3c(c2)C(=O)N(C2CCC(=O)NC2=O)C3=O)C1 (stereo not given in full)
DC50 [15]: 0.0146 µM
DC50 [16]: 0.0149 µM

— ChEMBL document CHEMBL5241095, “Developments of CRBN-based PROTACs as potential therapeutic agents” (Eur J Med Chem, 2021)
